Earlier results in US20240293547A1, “POLYMERIC PERFLUOROCARBON NANOEMULSIONS FOR ULTRASONIC DRUG UNCAGING” (The Board of Trustees of the Leland Stanford Junior …, priority 2017, published 2024).

Conditions: for LogP: of the loaded drug

LogP | log P | SMILES
2.8 | – | Cc1cccc([C@H](C)c2cnc[nH]2)c1C [Dexmedetomidine]
3.82 | 3.8 | COC(=O)C1=C(C)NC(C)=C(C(=O)OCCN(C)Cc2ccccc2)C1c1cccc([N+](=O)[O-])c1 (stereo not drawn) [Nicardipine]
